Where two headings read alike, the source gives them in different places.

Here are results for 16 compounds from patent US20230365589A1, “NOVEL AMINE DERIVATIVES” (Sumitomo Pharma Co., Ltd., priority 2020, published 2023).

Common to all, as to type: biochemical
In one assay the target is T1, DYRK3 (Homo sapiens, UniProt O43781).
T1 construct: purchased Carna Biosciences, Inc. 04-133
T1 sequence (O43781 1-568 isoform O43781-2): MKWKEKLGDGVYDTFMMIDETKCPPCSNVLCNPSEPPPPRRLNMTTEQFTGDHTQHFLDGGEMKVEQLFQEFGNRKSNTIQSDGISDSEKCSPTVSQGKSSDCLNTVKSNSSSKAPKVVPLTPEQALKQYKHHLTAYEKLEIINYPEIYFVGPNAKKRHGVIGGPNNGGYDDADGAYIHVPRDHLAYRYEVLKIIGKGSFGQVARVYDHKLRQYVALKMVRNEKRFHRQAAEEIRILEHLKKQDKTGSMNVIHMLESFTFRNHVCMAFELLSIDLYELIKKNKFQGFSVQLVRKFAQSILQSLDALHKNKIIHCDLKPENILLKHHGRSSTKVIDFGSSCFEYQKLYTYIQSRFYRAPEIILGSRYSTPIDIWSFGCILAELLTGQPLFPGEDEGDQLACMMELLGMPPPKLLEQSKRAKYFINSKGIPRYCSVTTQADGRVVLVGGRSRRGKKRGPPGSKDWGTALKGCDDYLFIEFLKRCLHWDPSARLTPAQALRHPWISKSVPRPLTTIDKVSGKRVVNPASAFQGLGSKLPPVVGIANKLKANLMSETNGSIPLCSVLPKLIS
Put plainly: Inhibition test on activity of DYRK family, mobility shift assay (MSA): DYRK3. A digest of the protocol:
(§1)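 Mobility-shift readout of FITC-DYRKtide phosphorylation in 20 mM HEPES pH 7.5. The substrate mix held 4 µM peptide, 20 mM MgCl2 and ATP at 100 (1A), 200 (1B), 40 (2) or 20 µM (3). Reaction 1 h at room temperature; IC50 from regression of P/(P+S)-based inhibition vs log concentration.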

Another assay addresses T2, DYRK1A (Homo sapiens, UniProt Q13627).
T2 construct: purchased Carna Biosciences, Inc. 04-130
Put plainly: Inhibition test on activity of DYRK family, mobility shift assay (MSA): DYRK1A. In short, it runs like this: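 Mobility shift assay with recombinant DYRK1A (0.2 ng/μL enzyme solution), FITC-DYRKtide substrate (4 μM in substrate mix), 100 μM ATP in substrate mix, HEPES pH 7.5 buffer with MgCl2; 1 h at room temperature. Phosphorylated vs unphosphorylated peptide peaks quantified; IC50 from regression of inhibition rate against log concentration.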

In a further assay the target is T3, DYRK2 (Homo sapiens, UniProt Q92630).
T3 construct: purchased Carna Biosciences, Inc. 04-132
T3 sequence (Q92630 74-601 limits assumed): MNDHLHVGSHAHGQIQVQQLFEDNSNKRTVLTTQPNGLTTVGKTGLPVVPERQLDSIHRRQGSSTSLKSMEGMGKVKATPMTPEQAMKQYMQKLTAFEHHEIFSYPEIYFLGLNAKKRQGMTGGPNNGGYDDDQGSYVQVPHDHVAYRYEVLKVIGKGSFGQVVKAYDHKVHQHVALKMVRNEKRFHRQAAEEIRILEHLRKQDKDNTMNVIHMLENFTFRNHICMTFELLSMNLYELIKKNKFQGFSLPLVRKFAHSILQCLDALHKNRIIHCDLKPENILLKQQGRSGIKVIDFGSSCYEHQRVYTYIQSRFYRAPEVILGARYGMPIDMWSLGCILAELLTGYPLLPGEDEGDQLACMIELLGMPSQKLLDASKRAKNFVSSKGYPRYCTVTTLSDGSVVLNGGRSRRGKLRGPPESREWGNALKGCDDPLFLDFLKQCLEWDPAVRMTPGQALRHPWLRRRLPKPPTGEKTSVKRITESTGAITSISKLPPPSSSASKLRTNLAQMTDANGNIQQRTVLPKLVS
Put plainly: Inhibition test on activity of DYRK family, mobility shift assay (MSA): DYRK2. In short, it runs like this: as §1

Setting [1] is: read-out: Inhibitory activity DYRK 3.
Where [2] appears, read: read-out: Inhibitory activity DYRK 1A.
Setting [3] is: read-out: Inhibitory activity DYRK 2.
[4] abbreviates: MSA, FITC-labeled DYRKtide peptide, ATP 20 μM, read-out: Inhibitory activity DYRK 3 (IC50 class).
Setting [5] is: MSA, FITC-labeled DYRKtide peptide, ATP 100 μM, read-out: Inhibitory activity DYRK 1A (IC50 class).
The mark [6] stands for this setting: MSA, FITC-labeled DYRKtide peptide, ATP 40 μM, read-out: Inhibitory activity DYRK 2 (IC50 class).

Turning to `N#C[C@H]1C[C@@H]2[C@H](CO1)NC(=O)N2c1nc2c3c(ccc2s1)OCO3` [Example 131, (3aR,6R,7aR)-1-(2H-[1,3]dioxolo[4,5-e][1,3]benzothiazol-7-yl)-2-oxooctahydropyrano[3,4-d]imidazole-6-carbonitrile], the IC50 was 100 to 1000 nM at DYRK3 (setting [1]), under 10 nM on DYRK1A (setting [2]) and 100 to 1000 nM at DYRK2 (setting [3]).

In the case of `N#C[C@H]1C[C@H]2NC(=O)N(c3nc4c5c(ccc4s3)OCO5)[C@H]2CO1` [Example 132], the IC50 at DYRK3 (setting [1]), on DYRK1A (setting [2]) and on DYRK2 (setting [3]) was at least 1000 nM each time.

Turning to `N#C[C@H]1C[C@@H]2[C@H](CO1)NC(=O)N2c1nc2c3c(ccc2s1)OCCO3` [Example 133, (3aR,6R,7aR)-1-(7,8-dihydro[1,4]dioxino[2,3-e][1,3]benzothiazol-2-yl)-2-oxooctahydropyrano[3,4-d]imidazole-6-carbonitrile], the IC50 was 100 to 1000 nM at DYRK3 (setting [4]), under 10 nM at DYRK1A (setting [5]) and 100 to 1000 nM at DYRK2 (setting [6]).

Consider `C[C@H]1C[C@H]2NC(=O)N(c3nc4c5c(ccc4s3)OCC5)[C@H]2CO1` [Example 134], for which the IC50 at DYRK3 (setting [4]) is at least 1000 nM; on DYRK1A (setting [5]) it was 100 to 1000 nM; on DYRK2 (setting [6]), at least 1000 nM.

As to `O=C1N[C@H]2COCCC[C@H]2N1c1nc2c3c(ccc2s1)OCCO3` [Example 135, (3aR,8aR)-1-(7,8-dihydro[1,4]dioxino[2,3-e][1,3]benzothiazol-2-yl)hexahydro-1H-oxepino[3,4-d]imidazol-2(3H)-one], the results for the IC50 at DYRK3 (setting [4]), at DYRK1A (setting [5]) and at DYRK2 (setting [6]) were 100 to 1000 nM, 10 to 100 nM and 100 to 1000 nM, respectively.

For `COC(=O)[C@H]1C[C@@H]2[C@H](CO1)NC(=O)N2c1nc2c3c(ccc2s1)OCC3` [Example 141], the IC50 at DYRK3 (setting [4]) is at least 1000 nM; on DYRK1A (setting [5]), 10 to 100 nM; at DYRK2 (setting [6]) it was at least 1000 nM.

In the case of `O=C1N[C@H]2CO[C@@H](CO)C[C@H]2N1c1nc2c3c(ccc2s1)OCC3` [Example 144, (3aR,6R,7aR)-1-(7,8-dihydrofuro[3,2-e][1,3]benzothiazol-2-yl)-6-(hydroxymethyl)hexahydropyrano[3,4-d]imidazol-2(3H)-one], the IC50 is 100 to 1000 nM on DYRK3 (setting [4]), under 10 nM at DYRK1A (setting [5]) and at least 1000 nM on DYRK2 (setting [6]).

Take `O=C1N[C@@H]2C[C@H](CO)OC[C@@H]2N1c1nc2c3c(ccc2s1)OCC3` [Example 145]: the IC50 at DYRK3 (setting [4]) was at least 1000 nM; at DYRK1A (setting [5]), 100 to 1000 nM; on DYRK2 (setting [6]), at least 1000 nM.

Consider `O=C1N[C@H]2CO[C@@H](CO)C[C@H]2N1c1nc2c3c(ccc2s1)OCCO3` [Example 146, (3aR,6R, 7aR)-1-(7,8-dihydro[1,4]dioxino[2,3-e][1,3]benzothiazol-2-yl)-6-(hydroxymethyl)hexahydropyrano[3,4-d]imidazol-2(3H)-one], for which the IC50 on DYRK3 (setting [4]) was 100 to 1000 nM; on DYRK1A (setting [5]) it was under 10 nM; at DYRK2 (setting [6]), at least 1000 nM.

Consider `O=C1N[C@H]2CO[C@@H](CO)C[C@H]2N1c1nc2c3c(ccc2s1)OCO3` [Example 147, (3aR,6R,7aR)-1-(2H-[1,3]dioxolo[4,5-e][1,3]benzothiazol-7-yl)-6-(hydroxymethyl)hexahydropyrano[3,4-d]imidazol-2(3H)-one], for which the figures for the IC50 on DYRK3 (setting [4]), on DYRK1A (setting [5]) and on DYRK2 (setting [6]) were 100 to 1000 nM, under 10 nM and at least 1000 nM, respectively.

`C#C[C@H]1C[C@@H]2[C@H](CO1)NC(=O)N2c1nc2c3c(ccc2s1)OCC3` [Example 149, (3aR,6R,7aR)-1-(7,8-dihydrofuro[3,2-e][1,3]benzothiazol-2-yl)-6-ethynylhexahydropyrano[3,4-d]imidazol-2(3H)-one]: the figures for the IC50 at DYRK3 (setting [4]), at DYRK1A (setting [5]) and on DYRK2 (setting [6]) were 100 to 1000 nM, under 10 nM and at least 1000 nM, respectively.

In the case of `O=C1N[C@H]2COC(O)C[C@H]2N1c1nc2c3c(ccc2s1)OCC3` (stereo partly drawn) [Example 150, (3aR,7aR)-1-(7,8-Dihydrofuro[3,2-e][1,3]benzothiazol-2-yl)-6-hydroxyhexahydropyrano[3,4-d]imidazol-2(3H)-one], the IC50 fell in the range of 100 to 1000 nM at DYRK3 (setting [4]), 10 to 100 nM on DYRK1A (setting [5]) and 100 to 1000 nM on DYRK2 (setting [6]).

For the compound `O=C1N[C@H]2COC(F)C[C@H]2N1c1nc2c3c(ccc2s1)OCC3` (stereo partly drawn) [Example 151, (3aR,7aR)-1-(7,8-Dihydrofuro[3,2-e][1,3]benzothiazol-2-yl)-6-fluorohexahydropyrano[3,4-d]imidazol-2(3H)-one], the IC50 on DYRK3 (setting [4]) was 10 to 100 nM; on DYRK1A (setting [5]), under 10 nM; on DYRK2 (setting [6]) it was 100 to 1000 nM.

As for `O=C1C[C@@H]2[C@H](CO1)NC(=O)N2c1nc2c3c(ccc2s1)OCC3` [Example 152], the IC50 at DYRK3 (setting [4]) is 10 to 100 nM; at DYRK1A (setting [5]) it was under 10 nM; at DYRK2 (setting [6]) it was 10 to 100 nM.

As for `O=C1N[C@@H]2[C@@H](CO[C@@H]2CO)N1c1nc2c3c(ccc2s1)OCC3` [Example 153], the values for the IC50 on DYRK3 (setting [4]), on DYRK1A (setting [5]) and on DYRK2 (setting [6]) were 100 to 1000 nM, 10 to 100 nM and 100 to 1000 nM, respectively.

Consider `O=C1N[C@@H]2CO[C@H](CO)[C@@H]2N1c1nc2c3c(ccc2s1)OCC3` [Example 154], for which the IC50 at DYRK3 (setting [4]), at DYRK1A (setting [5]) and on DYRK2 (setting [6]) was at least 1000 nM throughout.
